From patent publication US4149007A, “C14 Phenyl-substituted derivatives of prostaglandin analogues” (Miles Laboratories, Inc., priority 1977, dated 1979)

Key:
rat uterus = experiment: Effects on the rat uterus in vitro; assay type: cell-based; details: dose producing response 50% that of carbachol
Method: (B) effect on the rat uterus in vitro;
The uterine stimulant effect of test compounds was determined in segments of uterus obtained from rats (140-160 g) pretreated subcutaneously with 1 mg/kg of diethylstilbesterol 18 hours before the experiment. The tissues were placed in 10 ml chambers filled with de-Jalon solution at 29° C., were aerated and bubbled with 95% O2 and 5% CO2, and were prepared for isometric recording with force displacement transducers. Preparations were stretched to an initial tension of 1 g and were left undisturbed for 30 minutes. Carbachol (1 mcg/ml) was then added to the bath and a response was recorded. After a ten minute interval the carbachol procedure was repeated. Responses to increasing concentrations of a test compound (0.001 to 10 mcg/ml with one log intervals) were then recorded every 10 minutes. Preparations were washed four times after each response. All doses of compounds were administered in a 0.1 ml volume. Because it has been observed that the magnitude of the second response to carbachol (approximately 10% greater than the first) is close to the maximal response of the tissue, such value was taken as a measure of the sensitivity of a particular segment. Responses to each concentration of the test compound were expressed in terms of percentage of the second response to carbachol and the ED50 (dose producing a response 50% that of carbachol) was calculated graphically.
Activity was scored according to the following scale: […]

rat stomach fundus = experiment: Cascade assay: rat stomach fundus; assay type: cell-based; details: in vitro, smooth muscle stimulant ED50 scored
Method: (§1) (A) effects on the rat stomach, rat colon, chick rectum, and rabbit aorta in vitro (cascade assay);
(§2) The smooth muscle stimulant effects of test compounds were determined simultaneously in four different tissues that are known to be reactive to naturally occurring prostaglandins. Segments of rat stomach fundus, rat colon, chick rectum and rabbit aortic strip were obtained as described by: Vane, J. R., Brit. J. Pharmacol., 12: 344 (1957); Regoli, D. and Vane, J. R., Brit. J. Pharmacol., 23: 351 (1964); Mann, M. and West, G. B., Brit. J. Pharmacol., 5: 173 (1950); and Furchgott, R. F. and Bhadrakom, R., J. Pharmacol. Exper. Ther., 108: 129 (1953). One end of each preparation was tied to the bottom of a 10 ml tissue chamber and the other to a force displacement transducer (Grass FT-03) for continuous tension recording. The stomach, colon, and rectum segments were stretched to an initial tension of 1 g, while the aortic strip was subjected to 4 g. All preparations were left undisturbed for 1 hour prior to testing. […]
(§3) Test compounds were diluted from stock solutions so as to administer quantities ranging from 0.0001 to 100,000 ng in a volume of 0.5 ml. […] Maximal increases in tension after each dose were measured and the results were used to plot dose-response curves. […]
(§4) Activity in each tissue was scored according to the following scale: […]

rat colon = experiment: Cascade assay: rat colon; assay type: cell-based; details: in vitro, smooth muscle stimulant ED50 scored
Method: as §1, §2, §3, §4

chick rectum = experiment: Cascade assay: chick rectum; assay type: cell-based; details: in vitro, smooth muscle stimulant ED50 scored
Method: as §1, §2, §3, §4

rabbit aortic strip = experiment: Cascade assay: rabbit aortic strip; assay type: cell-based; details: in vitro, smooth muscle stimulant ED50 scored
Method: as §1, §2, §3, §4

rat = experiment: Effects on gastric secretion in the rat; assay type: in vivo; details: pylorus ligated, 1.5 mg/kg s.c. twice (total 3.0 mg/kg), 4 hours
Method: (F) effect on gastric secretion in the rat;
A procedure based on that described by Lipman, W. (J. Pharm. Pharmacol., 21: 335 [1968]) was used to assess the influence of test compounds on gastric secretion. Rats of one sex weighing 150 to 200 g were randomly divided into groups of six animals each and fasted for 48 hours previous to the experiments, water being available ad libitum. The animals were anesthetized with ether, the abdomen opened through a midline incision, and the pylorus ligated. Test compounds were diluted from stock solution so as to administer a dose of 1.5 mg/kg in a volume equivalent to 1 ml/kg. Subcutaneous injections were applied immediately after surgery and again 2 hours later, so that a total dose of 3.0 mg/kg was administered. Dilutions were made with phosphate buffer (pH 7.38) as recommended by Lee et al. (Prostaglandins, 3: 29 [1973]) in order to insure adequate stability of drugs at the subcutaneous depot. […]
Four hours after pyllric ligation the animals were killed with ether, the cardias ligated, and the stomachs removed. The volume of gastric secretion was measured and the contents centrifuged at 5000 rpm for 10 minutes. […]
Volume and total acid values of the treated group were compared with those of the controls […]. Antisecretory activity was scored according to the following scale: […]

human platelet = experiment: Inhibition of human platelet aggregation in vitro; assay type: cell-based; details: human platelet rich plasma, collagen-induced
Method: (E) effect on human platelet aggregation in vitro; and
The ability of test compounds to inhibit platelet aggregation was determined by a modification of the turbidometric technique of Born, G. V. R. (Nature, 194: 927 [1962]). Blood was collected from human volunteers, who had not ingested aspirin or aspirin-containing products within the preceding two weeks, in heparinized containers and was allowed to settle for one (1) hour. The platelet rich plasma (prp) supernates were collected and pooled. Siliconized glassware was used throughout.
In a representative assay, 1.9 ml of PRP and 0.2 ml of test compound at the appropriate concentration ([…]), or 0.2 ml of distilled water (control procedure) were placed in sample cuvettes. The cuvettes were placed in a 37° C. incubation block for 15 minutes, and then in a spectrophotometer linked to a strip chart recorder. After 30-60 seconds, 0.2 ml of a solution, prepared by diluting a calf-skin collagen solution 1:9 with Tyrodes' Solution, was added to each cuvette. Platelet aggregation was evidenced by a decrease in optical density.
An ED50 value was then determined graphically.

growth hormone = details: rats; cited from earlier work
adrenal glands = details: hypophysectomized rats; cited from earlier work
[1] = tested on: female reproductive system; details: cited from earlier work; for labor / abortion effect: inducing labor, early pregnancy
tracheal smooth muscle = details: in vitro, most mammalian respiratory tracts; cited from earlier work
[2] = tested on: motor pathways in the central nervous system; details: cited from earlier work

With `CCCCC[C@@H](O)/C(=C/C1CCC(=O)C1C/C=C\CCCC(=O)OC)c1ccccc1` (mixture of isomers) [Example 8, Methyl dl-14-phenyl-15R-hydroxy-9-oxoprosta-5,13E-dien-1-oate] the “Rat Uterus: activity value (ED50)” value (rat uterus) was 0 (>10).
With `CCCCC[C@H](O)/C(=C/C1CCC(=O)C1C/C=C\CCCC(=O)OC)c1ccccc1` (mixture of isomers) [Example 9, Methyl dl-14-phenyl-15S-hydroxy-9-oxoprosta-5Z,13E-dien-1-oate] the “Rat Uterus: activity value (ED50)” value (rat uterus) was 0 (>10).
For `CCCCC[C@H](O)/C(=C/C1CCC(=O)C1C/C=C\CCCC(=O)O)c1ccccc1` (mixture of isomers) [Example 10, dl-14-Phenyl-15S-hydroxy-9-oxoprosta-5Z,13E-dien-1-oic acid], the “Rat Uterus: activity value (ED50)” value (rat uterus) was 0 (>10).
With `CCCCC[C@@H](O)/C(=C/C1CCC(=O)C1C/C=C\CCCC(=O)O)c1ccccc1` (mixture of isomers) [Example 11, dl-14-Phenyl-15R-hydroxy-9-oxoprosta-5Z-13E-dien-1-oic acid] the “Rat Uterus: activity value (ED50)” value (rat uterus) was 0 (>10).
For `CCCCCC(O)/C(=C/C1CCC(=O)C1CCCCCCC(=O)OC)c1ccccc1` (racemic) [Example 5, Methyl dl-14-phenyl-15R,S-hydroxy-9-oxoprost-13E-en-1-oate], the “Rat Uterus: activity value (ED50)” value (rat uterus) was 0 (>10).
With `CCCCC[C@H](O)/C(=C/[C@H]1[C@H](O)CC(=O)[C@@H]1CCCCCCC(=O)O)c1ccccc1` [Example 2, 14-Phenyl-11α,15S-dihydroxy-9-oxoprost-13E-en-1-oic acid] the “Rat Uterus: activity value (ED50)” value (rat uterus) was 0 (>10).
With `CCCCC[C@@H](O)/C(=C/[C@H]1[C@H](O)CC(=O)[C@@H]1CCCCCCC(=O)O)c1ccccc1` [Example 3, 14-phenyl-11α,15R-dihydroxy-9-oxoprost-13E-en-1-oic acid] the “Rat Uterus: activity value (ED50)” value (rat uterus) was 0 (>10).
With `CCCCC[C@H](O)/C(=C/[C@H]1[C@H](O)CC(=O)[C@@H]1C/C=C\CCCC(=O)OCC)c1ccccc1` [Example 7B, Ethyl-14-Phenyl-11α,15S-dihydroxy-9-oxoprosta-5Z-13E-dien-1-oate] the “Rat Uterus: activity value (ED50)” value (rat uterus) was 0 (>10).
In the case of `CCCCC[C@@H](O)/C(=C/C1C=CC(=O)C1CCCCCCC(=O)O)c1ccccc1` (stereo partly drawn) [Example 12, 14-Phenyl-15R-hydroxy-9-oxo-ent-prosta-10,13E-dien-1-oic acid], the “Cascade, Stomache: activity value (ED50)” value (rat stomach fundus) is reported as 0 (>10000), the “Cascade, Colon: activity value (ED50)” value (rat colon) is reported as 0 (>10000) and the “Cascade, Rectum: activity value (ED50)” value (chick rectum) is reported as 0 (>10000). The “Cascade, Aorta: activity value (ED50)” value (rabbit aortic strip) was 0 (>10000), the “Rat Uterus: activity value (ED50)” value (rat uterus) was 0 (>10) and the “Gastric Secretion: activity value (% decrease in acidity)” value (rat) was 0 (<26). For the same compound, the “Platelet Aggregation: activity value (ED50)” value (human platelet) was 1 (>0.1 and ≤1.0).
For `CCCCCC(O)/C(=C/[C@@H]1[C@@H](C/C=C\CCCC(=O)O)[C@@H](O)C[C@H]1O)c1ccccc1` (stereo partly drawn) [Example 14, 14-Phenyl-9α,11α,15R,S-trihydroxyprosta-5Z,13E-dien-1-oic acid], the “Rat Uterus: activity value (ED50)” value (rat uterus) was 0 (>10).
For `CCCCC[C@H](O)/C=C/[C@H]1[C@H](O)CC(=O)[C@@H]1C/C=C\CCCC(=O)O` [PGE2], the “release of the growth hormone” value (growth hormone) is given as “increase the release of the growth hormone”, the “steroidogenesis in the adrenal glands” value (adrenal glands) is given as “stimulate stereoidogenesis in the adrenal glands” and the “labor / abortion effect” value [1] is given as “produces potent oxytocic effects in inducing labor”. The “effect on tracheal smooth muscle” value (tracheal smooth muscle) was “relax”.
In the case of `CCCCC[C@H](O)/C=C/[C@@H]1[C@@H](C/C=C\CCCC(=O)O)[C@@H](O)C[C@H]1O` [PGF2α], the “fertility / gestation effect” value ([1]; female reproductive system) is listed as “has contragestational effects”, the “labor / abortion effect” value [1] is listed as “induces spontaneous abortions in early pregnancy” and the “transmission along motor pathways in the central nervous system” value [2] is listed as “facilitates transmission along motor pathways in the central nervous system”. For the same compound, the “effect on tracheal smooth muscle” value (tracheal smooth muscle) was “contracts such smooth muscle”.
